Data as given in patent US9708336B2, “Metallo-beta-lactamase inhibitors” (priority 2014, dated 2017).
Where two headings read alike, the source gives them in different places.

Tests used:
NDM-1 = NDM-1 (Klebsiella pneumoniae, UniProt C7C422); test: biochemical; assay type: biochemical; conditions: read-out: NDM-1 IC50
IMP-1 = IMP-1 (Serratia marcescens, UniProt P52699); test: biochemical; assay type: biochemical; conditions: read-out: IMP-1 IC50
Protocol: Enzyme Activity: Determination of IC50
The Class B enzyme activities were measured in the presence of the test inhibitor in a fluorescence assay against a commercially available substrate consisting of a cephalosporin core linking 7-hydroxycoumarin to fluorescein (CCF2-FA). The enzyme (NDM-1, IMP-1 or VIM-1) and the substrate were diluted in 100 mM KH2PO4 buffer (pH 7) containing 0.005% Tween-20 and 10 μM ZnSO4. […] The test inhibitor was dissolved in dimethylsulfoxide and diluted 1:50 in the assay, resulting in a final concentration range of 20 uM to 0.00063 uM. In a 384-well microplate, the test inhibitor was incubated with the metallo-β-lactamase enzyme and the substrate for 2 hours at 25° C. Fluorescence at 460 nm following excitation at 405 nm was measured. The IC50 value was determined from semi-logarithmic plots of enzyme inhibition versus inhibitor concentration, with a curve generated using a 4-parameter fit.

VIM-1 = VIM-1 (Pseudomonas aeruginosa (strain ATCC 15692 / DSM 22644 / CIP 104116 / JCM 14847 / LMG 12228 / 1C / PRS 101 / PAO1), UniProt A0A0F7KYQ8); test: Enzyme activity: determination of IC50, fluorescence assay with CCF2-FA substrate (VIM-1); assay type: biochemical
[1] = system: Escherichia coli expressing NDM-1 (CLB30005); test: Antibiotic potentiation activity: synergistic concentration (MITC95) with imipenem, OD600 growth; assay type: cell-based; conditions: for Escherichia coli MITC95: Escherichia coli expressing NDM-1 (CLB30005), 95% growth inhibition; for Escherichia coli expressing NDM-1 (CLB 30005) MITC95: concentration giving 95% inhibition of bacterial growth
Method in brief: (§1)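 Imipenem (4 μg/ml final; 1 μg/ml as an option) was combined with compound against isolates diluted 1:100 from saline suspensions into 1.1× CAMHB. Growth was assessed by absorbance at 22–24 h, 35 °C.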

[2] = system: Escherichia coli expressing NDM-1 (CLB30016); test: as above; assay type: cell-based; conditions: for Escherichia coli MITC95: Escherichia coli expressing NDM-1 (CLB30016), 95% growth inhibition; for Escherichia coli expressing NDM-1 (CLB 30016) MITC95: concentration giving 95% inhibition of bacterial growth
Method in brief: as §1

[3] = system: Klebsiella pneumoniae expressing VIM-1 (IHMA599644); test: as above; assay type: cell-based; conditions: for Klebsiella pneumoniae MITC95: Klebsiella pneumoniae expressing VIM-1 (IHMA599644), 95% growth inhibition; for Klebsiella pneumoniae expressing VIM-1 (IHMA 599644) MITC95: concentration giving 95% inhibition of bacterial growth
Method in brief: as §1

[4] = system: Serratia marcescens expressing IMP-1 (CL5741); test: as above; assay type: cell-based; conditions: for Serratia marcescens MITC95: Serratia marcescens expressing IMP-1 (CL5741), 95% growth inhibition; for Serratia marcescens expressing IMP-1 (CL5741) MITC95: concentration giving 95% inhibition of bacterial growth
Method in brief: as §1

[5] = NDM-1 enzyme, CCF2-FA fluorescence assay
[6] = IMP-1 enzyme, CCF2-FA fluorescence assay
[7] = VIM-1 enzyme, CCF2-FA fluorescence assay, read-out: VIM-1 IC50
[8] = fluorescence assay with CCF2-FA substrate
[9] = fluorescence assay with CCF2-FA substrate, read-out: VIM-1 IC50
[10] = VIM-1 IC50, fluorescence assay with CCF2-FA substrate

IMP-1, sequence (P52699 whole entry, looked up): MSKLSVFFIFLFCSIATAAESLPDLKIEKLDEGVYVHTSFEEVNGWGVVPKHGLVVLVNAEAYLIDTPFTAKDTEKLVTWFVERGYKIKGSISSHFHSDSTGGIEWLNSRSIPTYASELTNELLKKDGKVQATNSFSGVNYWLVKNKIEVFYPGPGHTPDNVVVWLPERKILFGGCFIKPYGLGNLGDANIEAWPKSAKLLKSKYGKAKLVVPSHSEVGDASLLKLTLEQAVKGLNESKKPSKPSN
NDM-1, sequence (C7C422 whole entry, looked up, species assumed): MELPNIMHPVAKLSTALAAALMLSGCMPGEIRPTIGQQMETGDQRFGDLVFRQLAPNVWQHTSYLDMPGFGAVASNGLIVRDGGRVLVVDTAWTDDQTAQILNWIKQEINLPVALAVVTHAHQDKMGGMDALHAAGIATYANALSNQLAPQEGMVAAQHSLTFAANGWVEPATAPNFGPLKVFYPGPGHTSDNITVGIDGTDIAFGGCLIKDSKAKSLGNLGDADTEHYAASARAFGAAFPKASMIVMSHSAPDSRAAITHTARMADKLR

Compound	IC50 (NDM-1; [5]) [nM]	IC50 (IMP-1; [6]) [nM]	IC50 (VIM-1; [7]) [nM]	Escherichia coli MITC95 [1] [µM]	Escherichia coli MITC95 [2] [µM]	Klebsiella pneumoniae MITC95 [3] [µM]	Serratia marcescens MITC95 [4] [µM]	IC50 (NDM-1; [8]) [nM]	IC50 (IMP-1; [8]) [nM]	IC50 (VIM-1; [9]) [nM]	Escherichia coli expressing NDM-1 (CLB 30005) MITC95 [1] [µM]	Escherichia coli expressing NDM-1 (CLB 30016) MITC95 [2] [µM]	Klebsiella pneumoniae expressing VIM-1 (IHMA 599644) MITC95 [3] [µM]	Serratia marcescens expressing IMP-1 (CL5741) MITC95 [4] [µM]	IC50 (VIM-1; [10]) [nM]
NS(=O)(=O)c1cccc(-c2cnc3cc[nH]c3c2)c1-c1nn[nH]n1 [Example 310, 3-(1H-pyrrolo[3,2-b]pyridin-6-yl)-2-(2H-tetrazol-5-yl)benzenesulfonamide]	0.994	420	46	0.1953	0.02344	4.167	9.375								
NS(=O)(=O)c1cccc(-c2cncnc2)c1-c1nn[nH]n1 [Example 42, 3-pyrimidin-5-yl-2-(2H-tetrazol-5-yl)benzenesulfonamide]								543	10500	9960	1.563	0.7813	>200	200	
NS(=O)(=O)c1cccc(-c2ccnc3ccccc23)c1-c1nn[nH]n1 [Example 319, 3-(quinolin-4-yl)-2-(2H-tetrazol-5-yl)benzenesulfonamide]	0.551	62.2	0.886	0.3906	3.906	3.906	3.906								
NS(=O)(=O)c1cccc(-c2ccc3[nH]ncc3c2)c1-c1nn[nH]n1 [Example 313, 3-(1H-indazol-5-yl)-2-(2H-tetrazol-5-yl)benzenesulfonamide]	0.77	66.9	13.4	0.4635	0.5859	7.031	3.906								
NS(=O)(=O)c1nccc(-c2ccccc2)c1-c1nn[nH]n1 [Example 207, 4-phenyl-3-(2H-tetrazol-5-yl)pyridine-2-sulfonamide]								35.1	373	201	0.1953	0.5			
NS(=O)(=O)c1cccc(-c2ccc3nccn3c2)c1-c1nn[nH]n1 [Example 318, 3-(imidazo[1,2-a]pyridin-6-yl)-2-(2H-tetrazol-5-yl)benzenesulfonamide]	2.13	295	24.6	0.1953	0.0625	4.688	6.25								
CS(=O)(=O)Nc1ccc(-c2cccc(S(N)(=O)=O)c2-c2nn[nH]n2)cc1 [Example 82, 4′-[(methylsulfonyl)amino]-2-(2H-tetrazol-5-yl)biphenyl-3-sulfonamide]								1.43	22.2		1.953	0.5859	12.5	3.125	7.79
Cc1ccc(-c2cccc(S(N)(=O)=O)c2-c2nnn[nH]2)cc1 [Example 1, 4′-Methyl-2-(1H-tetrazol-5-yl)-[1,1′-biphenyl]-3-sulfonamide]								3.77	64.8	57.6	1.489	0.7595	123.3	11.96	
NS(=O)(=O)c1nccc(-c2ccc(CO)cc2)c1-c1nnn[nH]1 [Example 181, 4-(4-(Hydroxymethyl)phenyl)-3-(1H-tetrazol-5-yl)pyridine-2-sulfonamide]								27.9	375	184	1.953	0.6727	18.75	12.5	
CC(=O)Nc1ccc(-c2ccnc(S(N)(=O)=O)c2-c2nn[nH]n2)cc1 [Example 214, N-(4-(2-sulfamoyl-3-(2H-tetrazol-5-yl)pyridin-4-yl)phenyl)acetamide]								13.2	98.4	129	0.1953	0.375	37.5	3.344	
CS(=O)(=O)Nc1ccc(-c2ccnc(S(N)(=O)=O)c2-c2nn[nH]n2)cc1 [Example 206, 4-(4-(methylsulfonamido)phenyl)-3-(2H-tetrazol-5-yl)pyridine-2-sulfonamide]								11.4	91.5	14.2	0.1953	0.375	3.125	4.125	
CN(C)CCCOc1ccc(-c2cccc(S(N)(=O)=O)c2-c2nn[nH]n2)cn1 [Example 30, 3-(6-(3-(dimethylamino)propoxy)pyridin-3-yl)-2-(2H-tetrazol-5-yl)benzenesulfonamide]								132	1670		3.125	1.563	200	50	875
NS(=O)(=O)c1cccc(-c2cnc3[nH]ccc3c2)c1-c1nn[nH]n1 [Example 312, 3-(1H-pyrrolo[2,3-b]pyridin-5-yl)-2-(2H-tetrazol-5-yl)benzenesulfonamide]	0.95	107	6.5	0.3906	0.5859	3.125	5.469								
NS(=O)(=O)c1cccc(-c2cnc3[nH]ncc3c2)c1-c1nn[nH]n1 [Example 309, 3-(1H-pyrazolo[3,4-b]pyridin-5-yl)-2-(2H-tetrazol-5-yl)benzenesulfonamide]	1.35	326		0.3906	0.7813	5.729	8.333								
Nc1ncc(-c2cccc(S(N)(=O)=O)c2-c2nn[nH]n2)cc1F [Example 314, 3-(6-amino-5-fluoropyridin-3-yl)-2-(2H-tetrazol-5-yl)benzenesulfonamide]	3.65	292		0.1953	0.3906	3.906	5.469								
NS(=O)(=O)c1cccc(-c2ccc3ccncc3c2)c1-c1nn[nH]n1 [Example 71, 3-isoquinolin-7-yl-2-(2H-tetrazol-5-yl)benzenesulfonamide]								1.22	78.6	14.5	0.7813		75	18.75	
NS(=O)(=O)c1nccc(-c2ccc3[nH]ncc3c2)c1-c1nn[nH]n1 [Example 199, 4-(1H-indazol-5-yl)-3-(2H-tetrazol-5-yl)pyridine-2 sulfonamide]								13	325	24.8	0.3906		3.125	6.25	
NS(=O)(=O)c1cccc(C2=CCSCC2)c1-c1nn[nH]n1 [Example 62, 3-(3,6-dihydro-2H-thiopyran-4-yl)-2-(2H-tetrazol-5-yl)benzenesulfonamide]								8.47	211	186	1.563		100	100	
NS(=O)(=O)c1c(Br)ccc(-c2ccc(C3CCNCC3)cc2)c1-c1nnn[nH]1 [Example 259, 4-Bromo-4′-(piperidin-4-yl)-2-(1H-tetrazol-5-yl)-[1,1′-biphenyl]-3-sulfonamide]	11	10.1	3.1	1.584		3.125	1								
NS(=O)(=O)c1nccc(-c2ccc3c(c2)CNC3=O)c1-c1nnn[nH]1 [Example 196, 4-(1-oxoisoindolin-5-yl)-3-(1H-tetrazol-5-yl)pyridine-2-sulfonamide]								45.6	1590	50.3	1.953		25	125	
